Laboratory results: paper PMC11887212 (Journal of Hematology & Oncology, 2025)

Target: sorcin (Homo sapiens, UniProt P30626)
Experiment: SPR
Type: binding

Sequence of sorcin (P30626 whole entry): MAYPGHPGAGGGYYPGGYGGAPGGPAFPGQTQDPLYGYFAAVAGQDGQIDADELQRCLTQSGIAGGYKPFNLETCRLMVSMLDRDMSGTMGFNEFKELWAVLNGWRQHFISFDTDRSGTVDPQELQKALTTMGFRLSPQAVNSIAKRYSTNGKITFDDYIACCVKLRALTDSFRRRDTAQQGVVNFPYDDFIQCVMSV

## CC1=C(O)C(=O)C=C2C1=CC=C1[C@@]2(C)CC[C@@]2(C)[C@@H]3C[C@](C)(C(=O)O)CC[C@]3(C)CC[C@]12C [compound 1, celastrol]
  Kd: 2130 nM
